From patent publication US4798821A, “Antihypertensive therapy for diabetics” (Merck & Co., Inc., priority 1987, dated 1989)

Experiments:
Assay type in all cases: in vivo, rat
diabetic rats = assay: Systolic blood pressure (tail cuff) in streptozotocin-diabetic rats; settings: treated diabetic rats
Protocol: (§1) In the determination, the following groups of rats were employed, each group consisting of ten rats.
Group 3 Diabetic rats treated with cyclopeptide compound
Normal rats were commercially available laboratory rats identified as CD rats.
(§2) Diabetic rats were CD rats in which diabetes was induced by the injection of streptozotocin into the femoral vein at a dose of 60 mg/kg. Hyperglycemia was confirmed by measuring glucose levels in blood obtained by orbital bleeding. (A standard medical technique for obtaining blood form the orbital sinus is described in "Laboratory Animal Medicine" edited by J. G. Fox et al., Academic Press, Inc., Orlando, Fla., 1984.)
Dosing was initiated with cyclopeptide compound four days after injection of streptozotocin to induce diabetes in the diabetic rats. […]
(§3) The rats were housed two to a box and fed standard rat food and water ad libitum. Blood pressure was measured indirectly with a photoelectric system with a tail cuff containing a built in sensor (Harvard Biosciences,Cambridge, MA). The instrument was calibrated on each day of use with a sphygmomanometer. Six to eight recordings were made for each rat.
Blood pressure measurements were initated 8 days following injection of streptozotocin (4 days after start of treatment).
FIG. 1 is a graph in which the blood pressures of normal, diabetic and treated diabetic rats are plotted against a period of time in days. (Each point is the mean of 7 to 10 rats±standard deviation.)

[1] = test system: spontaneously hypertensive (SH) rats; assay: Systolic blood pressure (tail cuff) in spontaneously hypertensive rats; settings: treated SH rats
Protocol: as §1
Group 4 Spontaneously hypertensive (SH) rats
Group 5 Spontaneously hypertensive rats treated with cyclopeptide compound
SH rats were commercially available spontaneously hypertensive rats.
(§4) Dosing was initiated with cyclopeptide compound four days after injection of streptozotocin to induce diabetes in the diabetic rats. Dosing was carried out by administering the cyclopeptide compound in the drinking water at a dose of 50 μg/rat/day.
as §3
The blood pressure measurements of treated and untreated spontaneously hypertensive rats compared with normal rats may be seen in FIG. 2.
FIG. 2 is a graph in which the systolic blood pressure of normal, spontaneously hypertensive and treated spontaneously hypertensive rats are plotted against a period of time in days.

[2] = Body weight of treated rats; settings: for Body Weight (after 38 days): mean ± std. dev.
Protocol: as §1, §2, §4, §3
(§5) At the beginning of the experiment, the mean weights of the CD rats were 160 grams and the SH rats were 220 grams. The body weights after 38 days may be seen in Table 1. The serum glucose level, measured after 27 days of treatment also may be seen in Table 1.

[3] = Serum glucose level of treated rats; settings: for Serum Glucose (after 27 days): after 27 days of treatment, mean ± std. dev.
Protocol: as §1, §2, §4, §3, §5

[4] = diabetic rat or spontaneously hypertensive rat

Serum Glucose (after 27 days) ([3]; Diabetic CD rats (streptozotocin) + Compound IA in drinking water): 352 ± 52 mg %
Serum Glucose (after 27 days) ([3]; SH rats + Compound IA in drinking water, P = <0.05 relative to normal CD): 90 ± 10 mg %
effect on serum glucose level (in words) [3, 4]: no significant effect
Compound: CC(C)[C@@H]1NC(=O)[C@H](CCCCN)NC(=O)[C@@H](Cc2c[nH]c3ccccc23)NC(=O)[C@H](Cc2ccc(O)cc2)NC(=O)[C@H](C)N(C)C(=O)[C@H](Cc2ccccc2)NC1=O [Compound IA, cyclo-(N-MeAla-Tyr-(D)Trp-Lys-Val-Phe)]
reduction in blood pressure (diabetic rats; 33rd day of treatment, 100 μg/rat/day from 21st day, P=<0.005): 18%
reduction in blood pressure (diabetic rats; 38th day of treatment, 100 μg/rat/day from 21st day, P=<0.001): 21%
reduction in blood pressure (diabetic rats; after 17 days of treatment, 50 μg/rat/day in drinking water, P=<0.05): 14%
reduction in systolic blood pressure ([1]; 10th day of treatment, P=<0.02): 11%
inhibition of blood pressure after the 10th day ([1]; after 10th day, even after increasing dose to 200 μg/rat/day on 40th day): no further inhibition was evident
Body Weight (after 38 days) ([2]; Diabetic CD rats (streptozotocin) + Compound IA in drinking water, 50 μg/rat/day, doubled to 100 μg/rat/day on 21st day): 281 ± 63 gms
Body Weight (after 38 days) ([2]; SH rats + Compound IA in drinking water): 285 ± 17 gms
effect on body weight (in words) [2, 4]: no significant effect
